In patent US8329675B2, “Inhibitors of fatty acid amide hydrolase” (Infinity Pharmaceuticals, Inc., priority 2006, dated 2012):
Like-named read-outs stand apart in the source and are kept apart here.

Biological target: T1, human FAAH (Homo sapiens, UniProt O00519)
T1 construct: host or cells: COS-7 cells, transient transfection; 13,000 g membrane fraction solubilised in 1% Triton X-100
T1 sequence (O00519 1-579): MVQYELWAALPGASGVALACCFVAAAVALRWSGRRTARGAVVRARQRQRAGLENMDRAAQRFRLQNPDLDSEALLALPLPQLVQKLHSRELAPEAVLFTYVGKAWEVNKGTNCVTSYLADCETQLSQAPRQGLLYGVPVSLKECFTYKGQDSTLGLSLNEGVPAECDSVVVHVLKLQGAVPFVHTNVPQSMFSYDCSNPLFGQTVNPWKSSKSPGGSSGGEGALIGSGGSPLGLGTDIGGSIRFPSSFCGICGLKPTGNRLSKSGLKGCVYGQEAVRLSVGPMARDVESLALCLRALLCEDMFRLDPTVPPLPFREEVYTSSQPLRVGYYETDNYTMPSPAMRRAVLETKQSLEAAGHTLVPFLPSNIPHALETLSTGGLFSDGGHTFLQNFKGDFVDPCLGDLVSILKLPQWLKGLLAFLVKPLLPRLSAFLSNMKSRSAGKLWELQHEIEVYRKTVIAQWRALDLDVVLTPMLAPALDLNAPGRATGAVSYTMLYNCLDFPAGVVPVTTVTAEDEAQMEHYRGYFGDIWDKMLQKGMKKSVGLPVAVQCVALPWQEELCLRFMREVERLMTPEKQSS
Assay: Human FAAH biochemical inhibition assay (AMC arachidonoyl amide fluorescence)
Outline: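 Solubilized membrane fraction from COS-7 cells transfected with human FAAH, used at a final 0.05 mg/ml in 50 mM Hepes pH 7.5, 1 mM EDTA, 0.2% Triton X-100. Inhibitor pre-incubated 30 min at room temperature; 20 uM final AMC arachidonoyl amide added, reaction run 4 h at room temperature, fluorescence read.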

[1] = Table 1, human FAAH (no asterisk), read-out: Activity (Ki)
[2] = Table 2, human FAAH (no asterisk), read-out: Activity (Ki)

| SMILES | Ki [1] [nM] | Ki [2] [nM] | further results |
| --- | --- | --- | --- |
| O=[N+]([O-])c1ccc(B(O)O)cc1 [Compound I-83] | 10 to 1000 |  |  |
| OB(O)c1cc(F)cc(F)c1 [Compound I-24] | 10 to 1000 |  |  |
| OB(O)c1ccc(COCC2CCCCC2)cc1 [II-100] |  | 10 to 100 |  |
| OB(O)c1csc2c(Cl)cccc12 [II-23] |  | 10 to 100 |  |
| OB(O)c1ccc(COCc2ccccc2-c2ccccc2)cc1 [II-94] |  | 10 to 100 |  |
| OB(O)c1ccoc1 [Compound I-64] | > 1000 |  |  |
| CC(C)(C)OC(=O)n1c(B(O)O)cc2ccccc21 [Compound I-133] | > 1000 |  |  |
| C[C@H](NC(=O)c1ccc(B(O)O)cc1)c1ccccc1 [II-172] |  | 10 to 100 |  |
| CC(C)Oc1ccc(B(O)O)cc1Cl [Compound I-35] | 10 to 100 |  |  |
| C/C(=N\OCc1ccccc1)c1ccc(B(O)O)cc1 [II-130] |  | < 10 |  |
| OB(O)c1cccc2cccnc12 [Compound I-112] | > 1000 |  |  |
| CN(Cc1ccc(B(O)O)cc1)c1ccccc1 [II-141] |  | < 10 |  |
| COc1ccc(B(O)O)cc1 [Compound I-87] | > 1000 |  |  |
| COc1ccc(Oc2ccc(B(O)O)cc2)cc1 [II-278] |  | < 10 |  |
| OB(O)c1ccc(OCCn2cccn2)cc1 [Compound I-124] | 10 to 100 |  |  |
| OB(O)c1ccc(CCCc2ccccc2)cc1F [II-46] |  | < 10 |  |
| OB(O)c1ccc(OCc2ccccc2)c(Cl)c1 [II-313] |  | 10 to 100 |  |
| OB(O)c1ccc2c(c1)OCCO2 [Compound I-98] | 10 to 1000 |  |  |
| CN(Cc1ccccc1)C(=O)c1ccc(B(O)O)cc1 [II-163] |  | 10 to 100 |  |
| COc1ccc(Br)cc1B(O)O [Compound I-12] | > 1000 |  |  |
| OB(O)c1cccc2ncccc12 [Compound I-113] | 10 to 1000 |  |  |
| OB(O)c1ccc(CNc2cccc3ccccc23)cc1 [II-118] |  | > 1000 |  |

| SMILES | Ki [1] [nM] | Ki [2] [nM] | further results |
| --- | --- | --- | --- |
| CC(C)Oc1c(Br)cc(F)cc1B(O)O [Compound I-7] | > 1000 |  |  |
| Cc1cc(CNc2ccc(B3OC(C)(C)C(C)(C)O3)cc2)ccc1F [II-188] |  | > 1000 |  |
| CN(C)c1cc(Oc2ccc(B(O)O)cc2)cc(Oc2cccc(F)c2)c1 [II-180] |  | > 1000 |  |
| O=[N+]([O-])c1ccccc1B(O)O [Compound I-66] | > 1000 |  |  |
| OB(O)c1cccc(Oc2ccccc2)c1 [II-114] |  | < 10 |  |
| OB(O)c1ccc(OCc2cccnc2)cc1F [II-160] |  | 10 to 100 |  |
| OB(O)c1ccc(OCCN2CCCCC2)cc1F [II-69] |  | 10 to 1000 |  |
| Cc1cccc(COc2ccc(B(O)O)cc2)c1 [II-270] |  | 10 to 100 |  |
| OB(O)c1ccc(Br)cc1 [Compound I-69] | 10 to 1000 |  |  |
| OB(O)c1ccc2c(c1)CCC(OCc1ccccc1)C2 (stereo not shown) [II-95] |  | < 10 |  |
| OB(O)c1ccc(Oc2cccc(N3CCCC3)c2)cc1F [II-197] |  | 10 to 100 |  |
| O=C(c1ccccc1)c1ccc(-c2ccc(B(O)O)cc2)cc1 [II-298] |  | 10 to 100 |  |
| OB(O)c1ccc(N2CCOCC2)cc1 [Compound I-139] | 10 to 1000 |  |  |
| O=C(CCCCc1ccccc1)Nc1cccc(CCOc2ccc(B(O)O)c(F)c2)c1 [II-19] |  | < 10 |  |
| Cc1cc(COc2ccc(B(O)O)cc2F)ccc1F [II-265] |  | < 10 |  |
| O=C(Nc1ccccc1)c1cccc(B(O)O)c1 [Compound I-165] | > 1000 |  |  |
| O=[N+]([O-])c1cccc(CCOc2ccc(B(O)O)c(F)c2)c1 [II-40] |  | > 1000 |  |
| CS(=O)(=O)c1ccc(B(O)O)cc1 [Compound I-84] | 10 to 1000 |  |  |
| OB(O)c1ccc(Oc2ccncc2)cc1 [II-292] |  | 10 to 1000 |  |
| CCCCCCCc1ccc(B(O)O)cc1 [Compound I-49] | < 10 |  |  |
| O=S(=O)(NCC1CCCCC1)c1ccc(B(O)O)cc1 [Compound I-119] | 10 to 1000 |  |  |
| OB(O)c1ccc(OCCCOc2ccccc2)cc1 [II-128] |  | < 10 |  |

| SMILES | Ki [1] [nM] | Ki [2] [nM] | further results |
| --- | --- | --- | --- |
| OB(O)c1ccccc1OC(F)(F)F [Compound I-48] | 10 to 1000 |  |  |
| OB(O)c1ccc(C(OCc2ccccc2)c2ccccc2)cc1 (stereo not shown) [II-63] |  | 10 to 1000 |  |
| CN(Cc1ccccc1)Cc1ccc(B(O)O)cc1 [II-131] |  | < 10 |  |
| CN(Cc1ccccc1)[C@H](COc1ccc(B(O)O)c(F)c1)Cc1ccccc1 [II-97] |  | 10 to 1000 |  |
| Cc1cc(B(O)O)cc(C)c1OCc1cccc(Cl)c1 [Compound I-148] | < 10 |  |  |
| COc1cc(Oc2ccc(B(O)O)cc2)cc(OC)c1OC [II-240] |  | 10 to 100 |  |
| Cc1ccc2ccc(B(O)O)c(F)c2n1 [II-60] |  | > 1000 |  |
| O=C1C[N+]2(Cc3ccccc3)CC(=O)O[B-]2(c2ccc(-c3cccc(F)c3)cc2F)O1 (stereo not shown) [II-5] |  | < 10 |  |
| OB(O)c1ccc(F)cc1 [Compound I-72] | > 1000 |  |  |
| COc1cc(F)cc(B(O)O)c1 [Compound I-15] | 10 to 1000 |  |  |
| OB(O)c1cc(Br)cc(Br)c1 [Compound I-23] | 10 to 1000 |  |  |
| O=C1c2cc(B(O)O)ccc2CC1Cc1ccccc1 (stereo not shown) [II-25] |  | < 10 |  |
| O=C(c1ccc(B(O)O)cc1)N1CCOCC1 [Compound I-171] | 10 to 1000 |  |  |
| OB(O)c1ccc(COCc2ccccc2)cc1F [II-28] |  | < 10 |  |
| OB(O)c1cc(OC(F)(F)F)ccc1F [Compound I-27] | 10 to 100 |  |  |
| OB(O)c1ccc(I)cc1 [Compound I-70] | 10 to 100 |  |  |
| COc1cc(B(O)O)cc(C(F)(F)F)c1 [Compound I-21] | > 1000 |  |  |
| CN(C)C(=O)C(Oc1ccc(B(O)O)cc1)c1ccccc1 (stereo not shown) [II-219] |  | 10 to 1000 |  |
| OB(O)c1ccc(Oc2ccc3c(c2)OCO3)cc1 [II-274] |  | < 10 |  |
| OB(O)c1cccc(I)c1 [Compound I-2] | 10 to 100 |  |  |
| COc1ccc(CN(Cc2ccccc2)S(=O)(=O)c2ccc(B(O)O)cc2)cc1 [Compound I-118] | 10 to 1000 |  |  |
| OB(O)c1ccc(COCc2cc(Cl)cc(Cl)c2)cc1F [II-48] |  | < 10 |  |

| SMILES | Ki [1] [nM] | Ki [2] [nM] | further results |
| --- | --- | --- | --- |
| COc1cccc2c(C(O)O)coc12 [II-38] |  | > 1000 |  |
| CN(C)[C@H](COc1ccc(B(O)O)c(F)c1)Cc1ccccc1 [II-98] |  | > 1000 |  |
| OB(O)c1cccc(OCc2ccccc2)c1 [II-316] |  | 10 to 100 |  |
| OB(O)c1ccc2cc(O)ccc2c1 [Compound I-168] | 10 to 100 |  |  |
| CN(C)CCCC(=O)Nc1cccc(CCOc2ccc(B(O)O)c(F)c2)c1 [II-22] |  | 10 to 1000 |  |
| Cc1cc(COc2ccc(B(O)O)c(F)c2)ccc1F [II-146] |  | < 10 |  |
| OB(O)C1=CCCCCC1 [Compound I-11] | > 1000 |  |  |
| OB(O)c1ccc(-c2ccccc2)c(F)c1 [Compound I-194] | < 10 |  |  |
| OB(O)c1ccc(OCc2cncs2)cc1F [II-159] |  | 10 to 100 |  |
| OB(O)c1ccc(OCc2cccc(Cl)c2)c(Cl)c1 [Compound I-154] | < 10 |  |  |
| OB(O)c1ccc2scc(COc3ccccc3)c2c1 [II-67] |  | > 1000 |  |
| Cc1cccc(B(O)O)c1 [Compound I-79] | > 1000 |  |  |
| OB(O)c1ccc(-c2cccc(F)c2)c(Cl)c1 [II-20] |  | 10 to 100 |  |
| O=C(CCc1ccccc1)c1ccc(B(O)O)c(F)c1 [II-44] |  | < 10 |  |
| OB(O)c1cccc(C(F)(F)F)c1 [Compound I-50] | 10 to 100 |  |  |
| CC(Cc1ccccc1)Oc1ccc(B(O)O)c(F)c1 (stereo not shown) [II-136] |  | < 10 |  |
| OB(O)c1ccc2sc3ccccc3c2c1 [II-31] |  | 10 to 1000 |  |
| OB(O)c1ccc(C(F)(F)F)cc1 [Compound I-86] | 10 to 100 |  |  |
| OB(O)c1ccc(Oc2ccc(F)c(F)c2)cc1F [II-210] |  | < 10 |  |
| CN(C)c1ccc(/N=N/c2ccc(B3OC(C)(C)C(C)(C)O3)cc2)cc1 [II-185] |  | 10 to 1000 |  |
| CC1(C)OB(c2cccc3cc[nH]c23)OC1(C)C [Compound I-3] | > 1000 |  |  |
| OB(O)c1ccc(OCc2ccncc2)cc1F [II-177] |  | 10 to 100 |  |

| SMILES | Ki [1] [nM] | Ki [2] [nM] | further results |
| --- | --- | --- | --- |
| OB(O)c1ccc(CBr)cc1 [II-241] |  | > 1000 |  |
| OB(O)c1cccs1 [Compound I-40] | > 1000 |  |  |
| CCCCCc1ccc(B(O)O)cc1 [Compound I-161] | < 10 |  |  |
| CC(=O)c1cccc(B(O)O)c1 [Compound I-42] | 10 to 1000 |  |  |
| OB(O)c1ccc(Cl)cc1 [Compound I-82] |  |  | Ki: 10 to 1000 nM |
| CC(=O)Oc1ccc(-c2ccc(B(O)O)cc2)cc1 [II-299] |  | 10 to 100 |  |
| OB(O)c1ccc(Oc2cccc(OC(F)(F)F)c2)cc1 [II-244] |  | < 10 |  |
| OB(O)c1ccc(COCC2CCCCO2)cc1 (stereo not shown) [II-102] |  | 10 to 100 |  |
| OB(O)c1ccc(-c2ccc(F)c(F)c2)cc1F [II-2] |  | < 10 |  |
| OB(O)c1ccc(OCCC2CCCCC2)cc1F [II-92] |  | < 10 |  |
| Cc1ccccc1B(O)O [Compound I-81] | > 1000 |  |  |
| O=C(NCc1ccccc1)C(Oc1ccc(B(O)O)cc1)c1ccccc1 (stereo not shown) [II-217] |  | 10 to 1000 |  |
| OB(O)c1ccc(-c2ccccc2F)cc1F [II-305] |  | < 10 |  |
| OB(O)c1ccc(C(O)c2ccccc2)cc1 (stereo not shown) [II-84] |  | 10 to 100 |  |
| OB(O)c1ccc(Oc2cccc(N3CCCCC3)c2)cc1F [II-196] |  | > 1000 |  |
| O=C(Nc1ccc(B(O)O)cc1)OCc1ccccc1 [Compound I-163] | 10 to 100 |  |  |
| CC1(C)OB(c2ccc(Cn3ccc4ccccc43)cc2)OC1(C)C [II-153] |  | < 10 |  |
| O=C1c2ccccc2C(=O)N1Cc1ccc(B(O)O)cc1 [II-14] |  | 10 to 100 |  |
